For 18 compounds, IC50 results are on record in patent US20230093099A1, “COMPOUNDS AND METHODS OF TREATING CANCERS” (CULLGEN (SHANGHAI), INC., priority 2019, published 2023).

Structures are written as SMILES.

One test has as its system RS4;11 cells. The test can be described thus: Cell viability assay (CellTiter-Glo) in RS4;11 cells. The class given is cell-based. As to conditions: Homo sapiens, 72 h; RS4;11 ALL cells treated for three days; read-out: cell viability inhibition IC50. In short, it runs like this: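 Three-day compound treatment of RS4;11 ALL cells (5000/well, 3-fold dilution series of 8 or 12 points), with IC50 from a nonlinear least-squares fit to CellTiter-Glo viability data.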
On the technique in general: In ATP-based viability assays light output follows the ATP content of the culture.
On to `O=C(CN1CCC(n2cc(-c3cnc4cccc(-c5cc(F)c(CN6CCOCC6)c(F)c5)c4n3)cn2)CC1)NCCCCCCCNc1ccc2c(c1)C(=O)N(C1CCC(=O)NC1=O)C2=O` (stereo not drawn) [JA-179, 2-(4-(4-(8-(3,5-difluoro-4-(morpholinomethyl)phenyl)quinoxalin-2-yl)-1H-pyrazol-1-yl)piperidin-1-yl)-N-(7-((2-(2,6-dioxopiperidin-3-yl)-1,3-dioxoisoindolin-5-yl)amino)heptyl)acetamide], for which the IC50 (commonly the concentration that inhibits the measured activity by half) is less than 100 nM.

Take `O=C(CN1CCC(n2cc(-c3cnc4cccc(-c5cc(F)c(CN6CCOCC6)c(F)c5)c4n3)cn2)CC1)NCCCCCCCCNc1ccc2c(c1)C(=O)N(C1CCC(=O)NC1=O)C2=O` (stereo not drawn) [JA-180, 2-(4-(4-(8-(3,5-difluoro-4-(morpholinomethyl)phenyl)quinoxalin-2-yl)-1H-pyrazol-1-yl)piperidin-1-yl)-N-(8-((2-(2,6-dioxopiperidin-3-yl)-1,3-dioxoisoindolin-5-yl)amino)octyl)acetamide]: the IC50 was less than 100 nM.

As to `O=C1CCC(N2C(=O)c3ccc(NCCCCC(=O)N4CCC(n5cc(-c6cnc7cccc(-c8cc(F)c(CN9CCOCC9)c(F)c8)c7n6)cn5)CC4)cc3C2=O)C(=O)N1` (stereo not drawn) [JA-182, 5-((5-(4-(4-(8-(3,5-difluoro-4-(morpholinomethyl)phenyl)quinoxalin-2-yl)-1H-pyrazol-1-yl)piperidin-1-yl)-5-oxopentyl)amino)-2-(2,6-dioxopiperidin-3-yl)isoindoline-1,3-dione], the IC50 was less than 100 nM.

The same test, now with this note: Homo sapiens, 72 h; RS4;11 cells; cell viability, 3 days, CellTiter-Glo; read-out: IC50.
In the case of `Cc1ncsc1-c1ccc(CNC(=O)[C@@H]2C[C@@H](O)CN2C(=O)[C@@H](NC(=O)CCOCCOCCOCCOCCNC(=O)CN2CCC(n3cc(-c4cnc5cccc(-c6cc(F)c(CN7CCOCC7)c(F)c6)c5n4)cn3)CC2)C(C)(C)C)cc1` [JA-167, (2S,4R)-1-((S)-20-(tert-Butyl)-1-(4-(4-(8-(3,5-difluoro-4-(morpholinomethyl)phenyl)quinoxalin-2-yl)-1H-pyrazol-1-yl)piperidin-1-yl)-2,18-dioxo-6,9,12,15-tetraoxa-3,19-diazahenicosan-21-oyl)-4-hydroxy-N-(4-(4-methylthiazol-5-yl)benzyl)pyrrolidine-2-carboxamide], the IC50 was more than 10000 nM.

Regarding `Cc1ncsc1-c1ccc(CNC(=O)[C@@H]2C[C@@H](O)CN2C(=O)[C@@H](NC(=O)CCCCNC(=O)CN2CCC(n3cc(-c4cnc5cccc(-c6cc(F)c(CN7CCOCC7)c(F)c6)c5n4)cn3)CC2)C(C)(C)C)cc1` [JA-168, (2S,4R)-1-((S)-2-(5-(2-(4-(4-(8-(3,5-Difluoro-4-(morpholinomethyl)phenyl)quinoxalin-2-yl)-1H-pyrazol-1-yl)piperidin-1-yl)acetamido)pentanamido)-3,3-dimethylbutanoyl)-4-hydroxy-N-(4-(4-methylthiazol-5-yl)benzyl)pyrrolidine-2-carboxamide], the IC50 is more than 10000 nM.

Consider `O=C(CN1CCC(n2cc(-c3cnc4cccc(-c5cc(F)c(CN6CCOCC6)c(F)c5)c4n3)cn2)CC1)NCCOCCNc1ccc2c(c1)C(=O)N(C1CCC(=O)NC1=O)C2=O` (stereo not drawn) [JA-169, 2-(4-(4-(8-(3,5-Difluoro-4-(morpholinomethyl)phenyl)quinoxalin-2-yl)-1H-pyrazol-1-yl)piperidin-1-yl)-N-(2-(2-((2-(2,6-dioxopiperidin-3-yl)-1,3-dioxoisoindolin-5-yl)amino)ethoxy)ethyl)acetamide], for which the IC50 was determined as 2030 nM.

In the case of `O=C(CN1CCC(n2cc(-c3cnc4cccc(-c5cc(F)c(CN6CCOCC6)c(F)c5)c4n3)cn2)CC1)NCCOCCOCCNc1ccc2c(c1)C(=O)N(C1CCC(=O)NC1=O)C2=O` (stereo not drawn) [JA-170, 2-(4-(4-(8-(3,5-Difluoro-4-(morpholinomethyl)phenyl)quinoxalin-2-yl)-1H-pyrazol-1-yl)piperidin-1-yl)-N-(2-(2-(2-((2-(2,6-dioxopiperidin-3-yl)-1,3-dioxoisoindolin-5-yl)amino)ethoxy)ethoxy)ethyl)acetamide], the IC50 was more than 10000 nM.

As for `O=C(CN1CCC(n2cc(-c3cnc4cccc(-c5cc(F)c(CN6CCOCC6)c(F)c5)c4n3)cn2)CC1)NCCOCCOCCOCCNc1ccc2c(c1)C(=O)N(C1CCC(=O)NC1=O)C2=O` (stereo not drawn) [JA-171, 2-(4-(4-(8-(3,5-Difluoro-4-(morpholinomethyl)phenyl)quinoxalin-2-yl)-1H-pyrazol-1-yl)piperidin-1-yl)-N-(2-(2-(2-(2-((2-(2,6-dioxopiperidin-3-yl)-1,3-dioxoisoindolin-5-yl)amino)ethoxy)ethoxy)ethoxy)ethyl)acetamide], the IC50 is more than 10000 nM.

For the compound `O=C(CN1CCC(n2cc(-c3cnc4cccc(-c5cc(F)c(CN6CCOCC6)c(F)c5)c4n3)cn2)CC1)NCCOCCOCCOCCOCCNc1ccc2c(c1)C(=O)N(C1CCC(=O)NC1=O)C2=O` (stereo not drawn) [JA-172, 2-(4-(4-(8-(3,5-Difluoro-4-(morpholinomethyl)phenyl)quinoxalin-2-yl)-1H-pyrazol-1-yl)piperidin-1-yl)-N-(14-((2-(2,6-dioxopiperidin-3-yl)-1,3-dioxoisoindolin-5-yl)amino)-3,6,9,12-tetraoxatetradecyl)acetamide], the IC50 is more than 10000 nM.

As to `O=C(CN1CCC(n2cc(-c3cnc4cccc(-c5cc(F)c(CN6CCOCC6)c(F)c5)c4n3)cn2)CC1)NCCOCCOCCOCCOCCOCCNc1ccc2c(c1)C(=O)N(C1CCC(=O)NC1=O)C2=O` (stereo not drawn) [JA-173, 2-(4-(4-(8-(3,5-Difluoro-4-(morpholinomethyl)phenyl)quinoxalin-2-yl)-1H-pyrazol-1-yl)piperidin-1-yl)-N-(17-((2-(2,6-dioxopiperidin-3-yl)-1,3-dioxoisoindolin-5-yl)amino)-3,6,9,12,15-pentaoxaheptadecyl)acetamide], the half-inhibitory concentration (IC50) is more than 10000 nM.

Turning to `O=C(CN1CCC(n2cc(-c3cnc4cccc(-c5cc(F)c(CN6CCOCC6)c(F)c5)c4n3)cn2)CC1)NCCNc1ccc2c(c1)C(=O)N(C1CCC(=O)NC1=O)C2=O` (stereo not drawn) [JA-174, 2-(4-(4-(8-(3,5-Difluoro-4-(morpholinomethyl)phenyl)quinoxalin-2-yl)-1H-pyrazol-1-yl)piperidin-1-yl)-N-(2-((2-(2,6-dioxopiperidin-3-yl)-1,3-dioxoisoindolin-5-yl)amino)ethyl)acetamide], the IC50 came out at 2450 nM.

For the compound `O=C(CN1CCC(n2cc(-c3cnc4cccc(-c5cc(F)c(CN6CCOCC6)c(F)c5)c4n3)cn2)CC1)NCCCNc1ccc2c(c1)C(=O)N(C1CCC(=O)NC1=O)C2=O` (stereo not drawn) [JA-175, 2-(4-(4-(8-(3,5-Difluoro-4-(morpholinomethyl)phenyl)quinoxalin-2-yl)-1H-pyrazol-1-yl)piperidin-1-yl)-N-(3-((2-(2,6-dioxopiperidin-3-yl)-1,3-dioxoisoindolin-5-yl)amino)propyl)acetamide], the IC50 stood at 128 nM.

For `O=C(CN1CCC(n2cc(-c3cnc4cccc(-c5cc(F)c(CN6CCOCC6)c(F)c5)c4n3)cn2)CC1)NCCCCNc1ccc2c(c1)C(=O)N(C1CCC(=O)NC1=O)C2=O` (stereo not drawn) [JA-176, 2-(4-(4-(8-(3,5-Difluoro-4-(morpholinomethyl)phenyl)quinoxalin-2-yl)-1H-pyrazol-1-yl)piperidin-1-yl)-N-(4-((2-(2,6-dioxopiperidin-3-yl)-1,3-dioxoisoindolin-5-yl)amino)butyl)acetamide], the concentration for half-maximal inhibition (IC50) was determined as 2790 nM.

In the case of `O=C(CN1CCC(n2cc(-c3cnc4cccc(-c5cc(F)c(CN6CCOCC6)c(F)c5)c4n3)cn2)CC1)NCCCCCNc1ccc2c(c1)C(=O)N(C1CCC(=O)NC1=O)C2=O` (stereo not drawn) [JA-177, 2-(4-(4-(8-(3,5-Difluoro-4-(morpholinomethyl)phenyl)quinoxalin-2-yl)-1H-pyrazol-1-yl)piperidin-1-yl)-N-(5-((2-(2,6-dioxopiperidin-3-yl)-1,3-dioxoisoindolin-5-yl)amino)pentyl)acetamide], the concentration for half-maximal inhibition (IC50) came out at 890 nM.

For the compound `O=C(CN1CCC(n2cc(-c3cnc4cccc(-c5cc(F)c(CN6CCOCC6)c(F)c5)c4n3)cn2)CC1)NCCCCCCNc1ccc2c(c1)C(=O)N(C1CCC(=O)NC1=O)C2=O` (stereo not drawn) [JA-178, 2-(4-(4-(8-(3,5-Difluoro-4-(morpholinomethyl)phenyl)quinoxalin-2-yl)-1H-pyrazol-1-yl)piperidin-1-yl)-N-(6-((2-(2,6-dioxopiperidin-3-yl)-1,3-dioxoisoindolin-5-yl)amino)hexyl)acetamide], the IC50 was 1900 nM.

In the case of `O=C(CN1CCC(n2cc(-c3cnc4cccc(-c5cc(F)c(CN6CCOCC6)c(F)c5)c4n3)cn2)CC1)NCCCCCCCNc1ccc2c(c1)C(=O)N(C1CCC(=O)NC1=O)C2=O` (stereo not drawn) [JA-179, 2-(4-(4-(8-(3,5-difluoro-4-(morpholinomethyl)phenyl)quinoxalin-2-yl)-1H-pyrazol-1-yl)piperidin-1-yl)-N-(7-((2-(2,6-dioxopiperidin-3-yl)-1,3-dioxoisoindolin-5-yl)amino)heptyl)acetamide], the IC50 was 78.3 nM.

In the case of `O=C(CN1CCC(n2cc(-c3cnc4cccc(-c5cc(F)c(CN6CCOCC6)c(F)c5)c4n3)cn2)CC1)NCCCCCCCCNc1ccc2c(c1)C(=O)N(C1CCC(=O)NC1=O)C2=O` (stereo not drawn) [JA-180, 2-(4-(4-(8-(3,5-difluoro-4-(morpholinomethyl)phenyl)quinoxalin-2-yl)-1H-pyrazol-1-yl)piperidin-1-yl)-N-(8-((2-(2,6-dioxopiperidin-3-yl)-1,3-dioxoisoindolin-5-yl)amino)octyl)acetamide], the half-maximal inhibitory concentration (IC50) stood at 88.6 nM.

Take `O=C1CCC(N2C(=O)c3ccc(NCCOCCC(=O)N4CCC(n5cc(-c6cnc7cccc(-c8cc(F)c(CN9CCOCC9)c(F)c8)c7n6)cn5)CC4)cc3C2=O)C(=O)N1` (stereo not drawn) [JA-181, 5-((2-(3-(4-(4-(8-(3,5-Difluoro-4-(morpholinomethyl)phenyl)quinoxalin-2-yl)-1H-pyrazol-1-yl)piperidin-1-yl)-3-oxopropoxy)ethyl)amino)-2-(2,6-dioxopiperidin-3-yl)isoindoline-1,3-dione]: the IC50 stood at 1690 nM.

`O=C1CCC(N2C(=O)c3ccc(NCCCCC(=O)N4CCC(n5cc(-c6cnc7cccc(-c8cc(F)c(CN9CCOCC9)c(F)c8)c7n6)cn5)CC4)cc3C2=O)C(=O)N1` (stereo not drawn) [JA-182, 5-((5-(4-(4-(8-(3,5-difluoro-4-(morpholinomethyl)phenyl)quinoxalin-2-yl)-1H-pyrazol-1-yl)piperidin-1-yl)-5-oxopentyl)amino)-2-(2,6-dioxopiperidin-3-yl)isoindoline-1,3-dione]: the IC50 worked out at 13.8 nM.

In the case of `O=C1CCC(N2C(=O)c3ccc(NCCOCCOCCC(=O)N4CCC(n5cc(-c6cnc7cccc(-c8cc(F)c(CN9CCOCC9)c(F)c8)c7n6)cn5)CC4)cc3C2=O)C(=O)N1` (stereo not drawn) [JA-183, 5-((2-(2-(3-(4-(4-(8-(3,5-Difluoro-4-(morpholinomethyl)phenyl)quinoxalin-2-yl)-1H-pyrazol-1-yl)piperidin-1-yl)-3-oxopropoxy)ethoxy)ethyl)amino)-2-(2,6-dioxopiperidin-3-yl)isoindoline-1,3-dione], the IC50 was more than 10000 nM.

For the compound `O=C1CCC(N2C(=O)c3ccc(NCCOCCOCCOCCC(=O)N4CCC(n5cc(-c6cnc7cccc(-c8cc(F)c(CN9CCOCC9)c(F)c8)c7n6)cn5)CC4)cc3C2=O)C(=O)N1` (stereo not drawn) [JA-184, 5-((2-(2-(2-(3-(4-(4-(8-(3,5-Difluoro-4-(morpholinomethyl)phenyl)quinoxalin-2-yl)-1H-pyrazol-1-yl)piperidin-1-yl)-3-oxopropoxy)ethoxy)ethoxy)ethyl)amino)-2-(2,6-dioxopiperidin-3-yl)isoindoline-1,3-dione], the IC50 worked out at 9990 nM.
